# Assay results taken from PubChem BioAssay AID1918999 (Molecular Pharmacology Branch, DTP, NCI, 2023).
# Tested on: 556581-035-R-J1-PDC complex spheroid growth
# Experiment: Anticancer human tumor 556581-035-R-J1-PDC patient-derived ovarian carcinoma cell line growth inhibition [AhR]
# Conditions: for IC50: curve of first compound; for viability, T/C: stronger effect = lower value
# Outline: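 Agents were dosed in half-log steps down from roughly clinical Cmax, or from 10 microM where Cmax was unknown, alone and with AhR antagonists. Read-out: percent test/control growth of tumor spheroids containing HUVEC and MSC stromal cells.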
# [1] = second compound 0.1 µM, first compound 0.0316 µM
# [2] = second compound 0.1 µM, first compound 0.1 µM
# [3] = second compound 0.1 µM, first compound 0.316 µM
# [4] = second compound 0.1 µM, first compound 1 µM
# [5] = second compound 0.316 µM, first compound 0.0316 µM
# [6] = second compound 0.316 µM, first compound 0.1 µM
# [7] = second compound 0.316 µM, first compound 0.316 µM
# [8] = second compound 0.316 µM, first compound 1 µM
# [9] = second compound 1 µM, first compound 0.0316 µM
# [10] = second compound 1 µM, first compound 0.1 µM
# [11] = second compound 1 µM, first compound 0.316 µM
# [12] = second compound 1 µM, first compound 1 µM
# [13] = second compound 3.16 µM, first compound 0.0316 µM
# [14] = second compound 3.16 µM, first compound 0.1 µM
# [15] = second compound 3.16 µM, first compound 0.316 µM
# [16] = second compound 3.16 µM, first compound 1 µM
# [17] = second compound 10 µM, first compound 0.0316 µM
# [18] = second compound 10 µM, first compound 0.1 µM
# [19] = second compound 10 µM, first compound 0.316 µM
# [20] = second compound 10 µM, first compound 1 µM
# 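For viability, T/C in this document: compound exposure lasted 7 days; 100% = DMSO vehicle control growth.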
SMILES,IC50 (second compound 0.1 µM) [µM],IC50 (second compound 0.316 µM) [µM],IC50 (second compound 1 µM) [µM],IC50 (second compound 3.16 µM) [µM],IC50 (second compound 10 µM) [µM],"viability, T/C [1] [%]","viability, T/C [2] [%]","viability, T/C [3] [%]","viability, T/C [4] [%]","viability, T/C [5] [%]","viability, T/C [6] [%]","viability, T/C [7] [%]","viability, T/C [8] [%]","viability, T/C [9] [%]","viability, T/C [10] [%]","viability, T/C [11] [%]","viability, T/C [12] [%]","viability, T/C [13] [%]","viability, T/C [14] [%]","viability, T/C [15] [%]",also measured
CC1COCCN1c1cc(-c2ccnn2C)c2ccnc(-c3ccn[nH]3)c2n1 (stereo not given) + CC(CO)NC(=O)c1cc(-c2ccc(Cl)cc2)nn(-c2cnn(C)c2)c1=O,0.474,0.69,0.944,0.398,0.295,108,79.7,52.4,47.1,104,89.3,56.3,47,106,84.4,64.6,48.5,114,80.7,53.6,"viability, T/C (second compound 0.1 µM, first compound 0.00316 µM): 106%; viability, T/C (second compound 0.1 µM, first compound 0.01 µM): 109%; viability, T/C (second compound 0.316 µM, first compound 0.00316 µM): 107%; viability, T/C (second compound 0.316 µM, first compound 0.01 µM): 114%; viability, T/C (second compound 1 µM, first compound 0.00316 µM): 118%; viability, T/C (second compound 1 µM, first compound 0.01 µM): 120%; viability, T/C (second compound 3.16 µM, first compound 0.00316 µM): 114%; viability, T/C (second compound 3.16 µM, first compound 0.01 µM): 130%; viability, T/C [16]: 43.2%; viability, T/C (second compound 10 µM, first compound 0.00316 µM): 107%; viability, T/C (second compound 10 µM, first compound 0.01 µM): 119%; viability, T/C [17]: 103%; viability, T/C [18]: 68.6%; viability, T/C [19]: 50.5%; viability, T/C [20]: 44.8%"
CC1COCCN1c1cc(C2(S(C)(=N)=O)CC2)nc(-c2ccnc3[nH]ccc23)n1 (stereo not given) + CC(CO)NC(=O)c1cc(-c2ccc(Cl)cc2)nn(-c2cnn(C)c2)c1=O,> 10,> 10,> 10,> 10,> 10,116,113,101,92,97.1,113,105,90.1,111,105,116,98.2,105,104,107,"viability, T/C (second compound 0.1 µM, first compound 3.16 µM): 86.2%; viability, T/C (second compound 0.1 µM, first compound 10 µM): 69.1%; viability, T/C (second compound 0.316 µM, first compound 3.16 µM): 81.4%; viability, T/C (second compound 0.316 µM, first compound 10 µM): 70.2%; viability, T/C (second compound 1 µM, first compound 3.16 µM): 78.2%; viability, T/C (second compound 1 µM, first compound 10 µM): 67.6%; viability, T/C [16]: 89.4%; viability, T/C (second compound 3.16 µM, first compound 3.16 µM): 83.5%; viability, T/C (second compound 3.16 µM, first compound 10 µM): 71.8%; viability, T/C [17]: 118%; viability, T/C [18]: 119%; viability, T/C [19]: 110%; viability, T/C [20]: 101%; viability, T/C (second compound 10 µM, first compound 3.16 µM): 81.2%; viability, T/C (second compound 10 µM, first compound 10 µM): 72.5%"
